Antileukemic activity data for 29 molecules are collected here from patent publication US9045490B2, “Use of parthenolide derivatives as antileukemic and cytotoxic agents” (University of Kentucky, priority 2003, dated 2015).

The first test relates to primary acute myelogenous leukemia (AML) cells. Put plainly: Assay for antileukemic activity (Annexin V/7-AAD apoptosis analysis by flow cytometry). The test is classed as cell-based. To be noted: 2.5 μM, 24 hours of culture. Here is the method: For apoptosis analysis, one million primary acute myelogenous leukemia (AML) cells were washed with cold PBS and resuspended in 200 microliters of Annexin binding buffer (10 mM HEPES/NaOH pH 7.4; 140 mM NaCl; 2.5 mM CaCl2). Annexin V-FITC (Pharmingen) and 0.25 mg/mL 7-AAD (7-aminoactinomycin D, Molecular Probes, CA) were added and the tubes were incubated at room temperature in the dark for 15 minutes. Cells were then diluted with 200 microliters of Annexin binding buffer and analyzed immediately by flow cytometry. Viable cells were identified as failing to label with Annexin V or 7-AAD. Cells beginning to die label with Annexin V, and as membrane integrity is lost, will also label with 7-AAD. […] Data are normalized to untreated control specimens. The data are in Table 1 for aminoparthenolide derivatives and Table 2 for the salts of some aminoparthenolides.
Background: A flow cytometer gives signals particle by particle.
As for `C/C1=C\CC[C@@]2(C)O[C@H]2[C@H]2OC(=O)[C@H](CN3CCCCC3)[C@@H]2CC1` [PipPT, 11S,11,13-Dihydro,13-(piperidin-1-yl)parthenolide], the Antileukemic activity is given as 2.5 μM, 71%.

Still in this test, the particulars now being: 5 μM, 24 hours of culture.
Regarding “11S,11,13-Dihydro,13-(pyrrolidin-1-yl)parthenolide [PyrPT]”, the Antileukemic activity is 5 μM, 23%.

On to `C/C1=C\CC[C@@]2(C)O[C@H]2[C@H]2OC(=O)[C@H](CN3CCCCC3)[C@@H]2CC1` [PipPT, 11S,11,13-Dihydro,13-(piperidin-1-yl)parthenolide], for which the Antileukemic activity entry is given as “v5 μM, 91%”.

Staying with this test, now noted: 10 μM, 24 hours of culture, normalized to untreated control.
Regarding “11S,11,13-Dihydro,13-(4-methylpiperidin-1-yl)parthenolide [Compound 4MePipPT]”, the Antileukemic activity is recorded as 10 μM, 83%.

With “11S,11,13-Dihydro,13-(pyrrolidin-1-yl)parthenolide [PyrPT]”, the Antileukemic activity is reported as 10 μM, 85%.

Consider “11S,11,13-Dihydro,13-(tert-butylamino)parthenolide [tBAPT]”, for which the Antileukemic activity is recorded as 10 μM, 20%.

With “11S,11,13-Dihydro,13-diethylaminoparthenolide [DEAPT]”, the Antileukemic activity is given as 10 μM, 60%.

With “11S,11,13-Dihydro,13-methyl pentyl aminoparthenolide”, the Antileukemic activity is recorded as 10 μM, 45%.

Regarding “11S,11,13-Dihydro,13-methylbutyl aminoparthenolide”, the Antileukemic activity is 10 μM, 68%.

As to “11S,11,13-dihydro,13-(piperidin-1-yl)parthenolide hydrochloride”, the Antileukemic activity is reported as 10 μM, 88%.

As for “11S, 11,13-Dihydro,13-(4-methylpiperidin-1-yl)parthenolide hydrochloride”, the Antileukemic activity is given as 10 μM, 62%.

As to `C=C1CCC2C(CN(CC)CC)C(=O)OC2C2C(=C)CCC12` (centres unmarked) [11H, 13-(N,N-Diethylamino)-dehydrocostuslactone], the Antileukemic activity is given as 10 μM, 5%.

On to `C=C1CCC2C(CN(C)C)C(=O)OC2C2C(=C)CCC12` (centres unmarked) [11H, 13-(N,N-Dimethylamino)-dehydrocostuslactone], for which the Antileukemic activity is 10 μM,12%.

On to `C=C1CCC2C(CN(C)CCCC)C(=O)OC2C2C(=C)CCC12` (centres unmarked) [11H, 13-(N-Butyl-N-methylamino)-dehydrocostuslactone], for which the Antileukemic activity is recorded as 10 μM, 8%.

Regarding `C=CCN(CC=C)CC1C(=O)OC2C1CCC(=C)C1CCC(=C)C12` (centres unmarked) [11H, 13-(N-Diallyl)-dehydrocostuslactone], the Antileukemic activity is 10 μM, 2%.

For the molecule `C=C1CCC2C(CN(CC)Cc3ccccc3)C(=O)OC2C2C(=C)CCC12` (centres unmarked) [11H, 13-(N-Ethyl-N-benzyl)-dehydrocostuslactone], the Antileukemic activity was 10 μM, 13%.

Turning to `C=C1CCC2C(CN(C)CCCCC)C(=O)OC2C2C(=C)CCC12` (centres unmarked) [11H, 13-(N-Methyl-N-pentylamino)-dehydrocostuslactone], the Antileukemic activity was 10 μM, 0%.

`C=C1CCC2C(CN(C)CCC)C(=O)OC2C2C(=C)CCC12` (centres unmarked) [11H, 13-(N-Methyl-N-propylamino)-dehydrocostuslactone]: the Antileukemic activity is reported as 10 μM, 1%.

Consider `C=C1CCC2C(CN3CCOCC3)C(=O)OC2C2C(=C)CCC12` (centres unmarked) [11H, 13-(N-Morpholine)-dehydrocostuslactone], for which the Antileukemic activity is listed as 10 μM, 10%.

For `C=C1CCC2C(CN3CCCCC3)C(=O)OC2C2C(=C)CCC12` (centres unmarked) [11H, 13-(N-Piperidine)-dehydrocostuslactone], the Antileukemic activity is reported as 10 μM, 14%.

On to `C=C1CCC2C(CNCCC)C(=O)OC2C2C(=C)CCC12` (centres unmarked) [11H, 13-(N-Propylamino)-dehydrocostuslactone], for which the Antileukemic activity is reported as 10 μM, 24%.

On to `C=C1CCC2C(CN3CCCC3)C(=O)OC2C2C(=C)CCC12` (centres unmarked) [11H, 13-(N-Pyrrolidine)-dehydrocostuslactone], for which the Antileukemic activity was 10 μM, 20%.

As for `CC1=CCCC2(C)OC2C2OC(=O)C(CNC3CC3)C2CC1` (centres unmarked) [11S,11,13-Dihydro,13-cyclopropylaminoparthenolide], the Antileukemic activity is reported as 10 μM, −6%.

Regarding `CCNCC1C(=O)OC2C1CCC(C)=CCCC1(C)OC21` (centres unmarked) [11S,11,13-Dihydro,13-ethylaminoparthenolide], the Antileukemic activity is 10 μM, 2%.

For the molecule `CNC[C@H]1C(=O)O[C@H]2[C@H]1CC/C(C)=C/CC[C@@]1(C)O[C@@H]21` [11S,11,13-Dihydro,13-methylaminoparthenolide], the Antileukemic activity was 10 μM, 4%.

As to `C#CCNCC1C(=O)OC2C1CCC(C)=CCCC1(C)OC21` (centres unmarked) [11S,11,13-Dihydro,13-propargylaminoparthenolide], the Antileukemic activity is 10 μM, 7%.

Take `CC1=CCCC2(C)OC2C2OC(=O)C(CN3CCCC3)C2CC1.Cl` (centres unmarked) [11S, 11,13-Dihydro,13-(pyrrolidin-1-yl)parthenolide hydrochloride]: the Antileukemic activity is listed as 10 μM, 85%.

`C/C1=C\CC[C@@]2(C)O[C@H]2[C@H]2OC(=O)[C@H](CN3CCN(C)CC3)[C@@H]2CC1` [Compound 4MePizPT, 11S,11,13-Dihydro,13-(4-methylpiperazin-1-yl)parthenolide]: the Antileukemic activity is on record as 10 μM, 7%.

On to `CC1=CCCC2(C)OC2C2OC(=O)C(CN3CCCCCCC3)C2CC1` (centres unmarked) [HeptaMePipt, 11S,11,13-Dihydro,13-(heptamethyleneimin-1-yl)parthenolide], for which the Antileukemic activity is 10 μM, 10%.

Regarding `CC1=CCCC2(C)OC2C2OC(=O)C(CN3CCCCCC3)C2CC1` (centres unmarked) [HomoPipPT, 11S,11,13-Dihydro,13-(homopiperidin-1-yl)parthenolide], the Antileukemic activity is listed as 10 μM, 40%.

The test is the same for the next values; noted with them: 20 μM, 24 hours of culture.
In the case of “11S,11,13-Dihydro,13-(morpholin-1-yl)parthenolide [MorPT]”, the Antileukemic activity is recorded as 20 μM, 20%.

In the case of “11S,11,13-Dihydro,13-(pyrrolidin-1-yl)parthenolide [PyrPT]”, the Antileukemic activity is given as 20 μM, 95%.
